# Source: US20220054478A1, “MINIMIZATION OF SYSTEMIC INFLAMMATION” (Ascendis Pharma Oncology Division A/S, priority 2019, published 2022)
# Design: species or system WISTAR rats
# Conditions: rat, in vivo, sc, 25 ug
# Text: Hydrogels were suspended (ca. 6% wt/v) PBST buffer at pH 7.4. […] Blood samples were withdrawn and used for plasma generation over the course of 28 d. […] Plasma concentration profiles were generated and analyzed with Phoenix WinNonlin software (Certara, Princeton, N.J., USA).
substance,measurement,value
Resiquimod [Compound 4],"t1/2 (biphasic), first phase",1.5 h
same,"t1/2 (biphasic), second phase",10 h
